Where two headings read alike, the source gives them in different places.
Legend:
rat = format: in vivo
Text: In terms of ovulation-stimulating action, a 30 times increase of stimulating effect was obtained over the control (without carboxylic acid) in the case of natural type LH-RH (Table 1). […] It is clear that a given pharmacological effect can be obtained at a dose equivalent to 5.2 times the intravenous dose or 3.1 times the subcutaneous dose. […] In view of these facts, it is obvious that the vaginal administration according to this invention is a very advantageous method of medication.
Thus, to achieve a given ovulation-stimulatingactivity, the vaginal preparation according to this invention requires only 2.6 times as much of peptide as by the intravenous route and 1.7 times as much of peptide as by the subcutaneous route. The unusual effectiveness of the vaginal preparation of this invention will also be apparent in view of the fact that oral administration requires 1900 times as much of peptide as by the intravenous route, rectal administration requires 82 times the dosage by the intravenous route, and vaginal administration with the oleaginous basis (Witepsol® S55) requires 26 times as much of peptide as by the intravenous route.

matured female SD rats = format: in vivo, rat; conditions: vaginal, aqueous solution with 10% citric acid at pH 2.0
Method: A synthetic peptide (monoacetate.pentahydrate; (Pyr)Glu-His-Trp-Ser-Tyr-D-Leu-Leu-Arg-Pro-NH-C2 H5) was dissolved in aliquots of Clark-Lubs buffer [J. Bact. 2, (1), 109, 191(1971) [or Sorensen's buffer [Ergeb.Physiol. 12, 3931 (1912)] at pH 2-7 and each solution was supported on a piece (substantially-predetermined volume) of cotton and administered into the vaginas of rats to investigate the pH dependence of the ovulation-stimulating activity of the peptide.
Using matured female SD rats (120-150 days, body weights from 250 to 350 g), each preparation was vaginally administered during the diestrus and the animal was autopsied next morning to check for the occurrence of ovulation based on the presence or absence of ova in the ampulla.
The same peptide as that used in Example 12 was dissolved in 0.238 mol/liter aqueous solutions of various water-soluble aliphatic carboxylic acids which had been previously adjusted to pH 3.5 with small amounts of 10 N--NaOH. […]
The same peptide as used in Example 12 was employed as the active component. Citric acid was added to aliquots of phthalate buffer (pH 3.5) at the levels of addition of 1, 2, 5, 7 and 10% (W/V) and the pH of each solution was readjusted to pH 3.5 with a small amount of concentrated NaOH. […]

CCNC(=O)[C@@H]1CCCN1C(=O)[C@H](CCCNC(=N)N)NC(=O)[C@H](CC(C)C)NC(=O)[C@@H](CC(C)C)NC(=O)[C@H](Cc1ccc(O)cc1)NC(=O)[C@H](CO)NC(=O)[C@H](Cc1c[nH]c2ccccc12)NC(=O)[C@H](Cc1c[nH]cn1)NC(=O)[C@@H]1CCC(=O)N1 [peptide of Example 12, (Pyr)Glu-His-Trp-Ser-Tyr-D-Leu-Leu-Arg-Pro-NH-C2 H5]
ED50, ovulation-stimulating activity (rat; intravenous route): 3.8 ng/100 g (body weight of rat)
ED50, ovulation-stimulating activity (rat; subcutaneous route): 5.8 ng/100 g (body weight of rat)
ED50, ovulation-stimulating activity (matured female SD rats): 9.9 ng/100 g (body weight of rat)
